Values quoted from earlier work in patent US9540691B2, “Assays and methods for selecting a treatment regimen for a subject with depression” (THE GENERAL HOSPITAL CORPORATION, priority 2011, dated 2017).
Like-named read-outs stand apart in the source and are kept apart here.

Tested on: adults with DSM-IV MDD, partial or nonresponse to an SSRI
Details: cited from earlier work

Compound: Nc1nc(=O)c2c([nH]1)NCC(CNc1ccc(C(=O)N[C@@H](CCC(=O)O)C(=O)O)cc1)N2C=O (mixture of isomers) [Folinic acid]
- HAM-D-17 score after treatment (16 completers, decreased from 19.1+/−3.9, p<0.01): 12.8+/−7.0
- remission (HAM-D-17 no greater than 7) (ITT sample): 18%
- remission (HAM-D-17 no greater than 7) (completers): 19%
- response (at least 50% reduction in HAM-D-17) (completers): 31%
- Folate levels after treatment (folinic acid 15-30 mg/day added to SSRIs, 8 weeks, rose from 28+/−19, p<0.001): 301 ± 203 ng/mL
- response (at least 50% reduction in HAM-D-17) (intent-to-treat (ITT) sample): 27%
